Each structure is given as a SMILES string.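 Growth conditions: 96-well plates. Treatment: test compound, 48 hours, 5 concentrations. Analysis: linear interpolation between bracketing concentrations; unreached endpoints set to highest concentration. Here, GI50 denotes the concentration required for 50% inhibition of growth.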 Active and inactive are the calls of the source. Rule as the data show it: active = GI50 up to about 1.1 µM and inactive = higher.

As usually defined, the GI50 is the concentration at which growth is held to half of that of the control.

Test systems include U-251; SR; RPMI-8226; MOLT-4; RXF 393; 786-0; BT-549; LOX IMVI; K562; OVCAR-4; SF-539; UACC-62; DU-145; Malme-3M; CAKI-1; NCI-H23; IGROV-1; HCT-15; HCT-116; CCRF-CEM.
What all share (assay): DTP human tumour cell line panel, 48 h

Take `COC(=O)C(N)CCCC(N)C(=O)NC(C)C(=O)NC(CCC(=O)NCCNCCNc1c2ccccc2nc2cccc([N+](=O)[O-])c12)C(N)=O` (stereo not given): the GI50 with U-251 is 5480 nM (inactive); in the test on SR, 19700 nM (inactive); in the test on RPMI-8226, 5320 nM (inactive); in the test with MOLT-4, 3500 nM (inactive); in the test with RXF 393, 8510 nM (inactive); in the test with 786-0, 5120 nM (inactive). In addition, the GI50 in the test with BT-549 was 16300 nM (inactive); in the test on LOX IMVI it was 14700 nM (inactive); in the test on K562 it was 3130 nM (inactive); in the test with OVCAR-4, 2160 nM (inactive); in the test with SF-539, 5190 nM (inactive); in the test with UACC-62 it was 8090 nM (inactive). Besides, the GI50 with DU-145 was 6280 nM (inactive); in the test with Malme-3M, 11300 nM (inactive); in the test with CAKI-1 it was 27900 nM (inactive); with NCI-H23, 3030 nM (inactive); in the test on IGROV-1, 4600 nM (inactive); with HCT-15, 14200 nM. For the same compound, the results for the GI50 with HCT-116 and in the test with CCRF-CEM were 4630 nM (inactive) and 7590 nM (inactive), respectively.
Regarding `O=[N+]([O-])c1cc([As](Br)c2ccc(O)c([N+](=O)[O-])c2)ccc1O`, the GI50 with U-251 was 1820 nM (inactive); in the test on SR, 383 nM (active); with RPMI-8226 it was 208 nM (active); with MOLT-4, 259 nM (active); in the test on RXF 393, 1560 nM (inactive); in the test on 786-0, 1440 nM (inactive). For the same compound, the GI50 in the test with BT-549 is 1880 nM (inactive); in the test on LOX IMVI, 1480 nM (inactive); in the test on K562 it was 462 nM (active); in the test on OVCAR-4, 1660 nM (inactive); in the test on SF-539 it was 1770 nM (inactive); with UACC-62, 1470 nM (inactive). Also, the GI50 with DU-145 is 2000 nM (inactive); in the test with Malme-3M, 632 nM (active); in the test with CAKI-1, 1700 nM (inactive); in the test with NCI-H23, 2170 nM (inactive); with IGROV-1, 1470 nM (inactive); in the test on HCT-15 it was 1990 nM. For the same compound, the results for the GI50 with HCT-116 and in the test on CCRF-CEM were 2000 nM (inactive) and 167 nM (active), respectively.
With `CCOC(=O)C(=Cc1ccc(Oc2ccccc2)cc1)C(=O)OCC`, the GI50 with U-251 is 3350 nM (inactive); with SR, 2520 nM (inactive); in the test with RPMI-8226, 2790 nM (inactive); in the test with MOLT-4 it was 1920 nM (inactive); in the test on RXF 393 it was 1890 nM (inactive); in the test on 786-0, 1850 nM (inactive). The GI50 with BT-549 is 1840 nM (inactive); in the test on LOX IMVI, 1470 nM (inactive); in the test on K562 it was 1870 nM (inactive); in the test on OVCAR-4, 7590 nM (inactive); in the test on SF-539, 3840 nM (inactive); in the test on UACC-62 it was 1630 nM (inactive). Moreover, the GI50 in the test with DU-145 was 11600 nM (inactive); in the test with Malme-3M, 2560 nM (inactive); with CAKI-1 it was 14100 nM (inactive); in the test on NCI-H23 it was 2580 nM (inactive); in the test with IGROV-1, 6810 nM (inactive); with HCT-15 it was 2440 nM. For the same compound, the results for the GI50 in the test on HCT-116 and with CCRF-CEM were 2310 nM (inactive) and 2030 nM (inactive), respectively.
For the compound `C/C(Cl)=N/OC(=O)Nc1ccc(F)c([N+](=O)[O-])c1`, the GI50 in the test with U-251 was 20000 nM (inactive); in the test with SR, 8570 nM (inactive); in the test on RPMI-8226, 2650 nM (inactive); in the test on MOLT-4 it was 1780 nM (inactive); with RXF 393, 12100 nM (inactive); in the test on 786-0, 4000 nM (inactive). The GI50 with BT-549 was 14100 nM (inactive); with LOX IMVI it was 6680 nM (inactive); in the test on K562, 2570 nM (inactive); in the test on OVCAR-4, 7360 nM (inactive); in the test with SF-539, 33300 nM (inactive); with UACC-62, 21300 nM (inactive). Moreover, the GI50 is 17300 nM (inactive) in the test with DU-145; 2650 nM (inactive) in the test on Malme-3M; 1790 nM (inactive) in the test with CAKI-1; 20000 nM (inactive) in the test with NCI-H23; 6970 nM (inactive) in the test with IGROV-1; 5940 nM in the test on HCT-15. Moreover, the values for the GI50 in the test on HCT-116 and in the test on CCRF-CEM were 3890 nM (inactive) and 2130 nM (inactive), respectively.

The record behind these values is ChEMBL document CHEMBL1201862, “PubChem BioAssay data set” (2004).
